In patent publication US10028961B2, “Therapeutically active compounds and their methods of use” (AGIOS PHARMACEUTICALS, INC., priority 2013, dated 2018):

How the values were obtained:
[1] = biological target: IDH1 wt/IDH1 R132H heterodimer (Homo sapiens (Human), UniProt O75874, R132H); test: In vitro assay for IDH1m R132H inhibitors, IDH1 wt/IDH1 R132H heterodimer, NADPH depletion (diaphorase/resazurin); type: biochemical; details: IDH1 wt/IDH1 R132H heterodimer, 300 μM NADP (saturated); read-out: IDH1 wt/R132H NADPH/NADP IC50 saturated
Sequence of IDH1 wt/IDH1 R132H heterodimer (O75874 whole entry R132H): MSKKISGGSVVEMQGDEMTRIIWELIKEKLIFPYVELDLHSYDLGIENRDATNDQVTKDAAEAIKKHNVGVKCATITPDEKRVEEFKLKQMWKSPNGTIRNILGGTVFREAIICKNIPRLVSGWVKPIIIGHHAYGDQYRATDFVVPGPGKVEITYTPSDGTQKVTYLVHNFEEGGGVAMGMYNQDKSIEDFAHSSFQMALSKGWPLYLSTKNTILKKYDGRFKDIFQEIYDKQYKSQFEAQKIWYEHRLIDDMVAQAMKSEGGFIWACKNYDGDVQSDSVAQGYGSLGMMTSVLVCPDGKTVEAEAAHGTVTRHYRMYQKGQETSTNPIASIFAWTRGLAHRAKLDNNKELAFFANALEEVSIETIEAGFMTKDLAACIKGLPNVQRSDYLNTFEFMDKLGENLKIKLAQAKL
Sequence of IDH1 wt/IDH1 R132H heterodimer (O75874 whole entry, stated change not applied): as the sequence (O75874 whole entry R132H) above, with H132R counted along it
Description: The following describes the experimental procedures that can be used to obtain data on columns 2 and 4 of Table 4 and column 2 of Table 5.
In the primary reaction, the reduction of α-KG acid to 2-HG is accompanied by a concomitant oxidation of NADPH to NADP. The amount of NADPH remaining at the end of the reaction time is measured in a secondary diaphorase/resazurin reaction in which the NADPH is consumed in a 1:1 molar ratio with the conversion of resazurin to the highly fluorescent resorufin.
The mixture of compound, enzyme, and cofactor is pre-incubated at room temperature for 1 hr prior to the addition of alpha-ketoglutarate. To perform the secondary reaction, 10 uL of 1× buffer containing 36 μg/ml diaphorase and […] resazurin is added to the primary reaction and incubated for a further 5 minutes at 25° C. […] Compounds or compound dilutions are prepared in 100% DMSO concentration and diluted 1:50 into the final reaction. […] IC50s are determined.
IDH1 or IDH2 wildtype (wt) and mutant heterodimers are expressed and purified by methods known in the art. […] Co-expression of IDH1wt-his and IDH1R132C-flag is carried out in sf9 insect cells. Cells (25 g) are resuspended in 250 ml of 50 mM Tirs, 500 mM NaCl, pH7.4, at 4° C. with stirring. Cells are disrupted with 4 passes through an M-Y110 Micro fluidizer (Microfluidics) set to 500 psi, and then centrifuged at 22,000 rcf for 20 min at 4° C. The supernatant is harvested and loaded at 15 cm/h on a Histrap FF 5*1 ml column (GE) which is equilibrated with 50 mM Tirs, 500 mM NaCl, pH7.4. Host cell contaminants are removed by washing the column with equilibration buffer followed by equilibration buffer containing 20 mM imidazole and 60 mM imidazole to baseline. IDH1wt-his homodimer and IDH1wt-his/IDH1R132C-flag are eluted by equilibration buffer containing 250 mM imidazole. Fractions eluted by 250 mM imidazole are pooled together and loaded at 15 cm/h onto a column pre-packed with 10 ml ANTI-FLAG® M2 Affinity Gel (Sigma), the column is equilibrated with 50 mM Tris, 500 mM NaCl, pH7.4. After washing with equilibration buffer, IDH1wt-his/IDH1R132C-flag heterodimer is eluted by equilibration buffer containing flag peptide (0.2 mg/ml). Aliquots of IDH1wt-his/IDH1R132C-flag are flash frozen in liquid N2 and stored at −80° C. Same conditions are used for the purification of IDH1wt-his/IDH1R132H-flag.

IDH2 R140Q = IDH2 R140Q (Homo sapiens (Human), UniProt P48735, R140Q); test: In vitro assay for IDH2m R140Q inhibitors, cofactor depletion assay; type: biochemical; details: IDH2 R140Q enzyme
Sequence of IDH2 R140Q (P48735 40-452 R140Q): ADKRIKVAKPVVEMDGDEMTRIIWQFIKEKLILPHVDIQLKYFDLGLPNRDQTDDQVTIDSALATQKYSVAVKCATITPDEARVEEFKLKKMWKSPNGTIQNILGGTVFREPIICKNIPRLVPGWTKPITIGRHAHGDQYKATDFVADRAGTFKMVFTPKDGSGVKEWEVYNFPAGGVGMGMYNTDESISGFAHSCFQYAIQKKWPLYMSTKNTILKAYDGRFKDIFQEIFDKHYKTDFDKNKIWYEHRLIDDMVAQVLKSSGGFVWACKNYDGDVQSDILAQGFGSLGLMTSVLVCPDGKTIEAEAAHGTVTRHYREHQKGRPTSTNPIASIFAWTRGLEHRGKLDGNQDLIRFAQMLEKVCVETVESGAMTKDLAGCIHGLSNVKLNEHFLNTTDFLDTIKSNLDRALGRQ
Description: The following describes the experimental procedures used to obtain data on column 7 of Table 4.
The reaction is terminated by the addition of a second enzyme, diaphorase, and a corresponding substrate, resazurin. Diaphorase reduces resazurin to the highly fluorescent resorufin with the concomitant oxidation of NADPH to NADP, both halting the IDH2 reaction by depleting the available cofactor pool and facilitating quantitation of the amount of cofactor remaining after a specific time period through quantitative production of an easily detected fluorophore.
The test compound is then incubated for one hour at room temperature with the enzyme; before starting the IDH2 reaction with the addition of 10 μl of substrate mix containing 4 μM NADPH and 1.6 mM α-KG in the buffer described above. After a further 16 hours of incubation at room temperature, the reaction is halted and the remaining NADPH measured through conversion of resazurin to resorufin by the addition of 25 μl Stop Mix (36 μg/ml diaphorase enzyme and 60 μM resazurin; in buffer).

[2] = test system: U87MG pLVX-IDH2 R140Q-neo cells; test: U87MG pLVX-IDH2 R140Q-neo cell based assay, 2-HG by LC-MS; details: Homo sapiens, U-87 MG
[3] = test system: Neurosphere cells (TS603); test: Cellular assay for IDH1m R132H inhibitors, 2-HG by LC-MS in neurosphere cells (TS603); type: cell-based; details: 2-HG in media at 48 hours
Description: Cellular Assay for IDH1m R132H Inhibitors.
The following describes the experimental procedures that can be used to obtain data in column 4 of Table 5.
Neurosphere cells (TS603) are grown at 37 C in 5% CO2 in Stem Cell Technologies NeuroCult™ NS-A media supplemented with 1% Primocin, 1% Normocin, 0.0002% Heparin, 20 ng/mL EGF and 10 ng/mL bFGF. Cells are harvested, pelleted and resuspended in Accumax for cell dissociation and counting. Cells are counted and then resuspended in NeuroCult media with 2× heparin, EGF and bFGF at 4 million cells/10 mL media. 100 μl of cell solution are plated in each well of a 96 well with the exception of columns 1 and 12. Columns 1 and 12 contain 200 μL PBS. Compound dose responses are set up at a 2× concentration in Neurocult media without heparin, EGF and bFGF. The final concentration of DMSO is 0.25%. DMSO only control wells are plated in row H. The plates are then placed in the incubator for 48 hours. At 48 hours, 100 μl of media is removed from each well and analyzed by LC-MS for 2-HG concentrations. The cell plate is placed back in the incubator for another 24 hours. At 72 hours post compound addition, 10 mL/plate of Promega Cell Titer Glo reagent is thawed and mixed. The cell plate is removed from the incubator and allowed to equilibrate to room temperature. Then 100 μl of Promega Cell Titer Glo reagent is added to each well of media. The cell plate is then placed on an orbital shaker for 10 minutes and then allowed to sit at room temperature for 20 minutes. The plate is then read for luminescence with an integration time of 500 ms.

SMILES	IC50 [1] [nM]	IC50 (IDH2 R140Q) [nM]	IC50 [2] [nM]	IC50 [3] [nM]
N#CC1(c2cc(Nc3nc(N[C@H]4CCC(F)(F)C4)nc(-c4ccnc(C(F)(F)F)n4)n3)ccn2)CC1 [Compound 341]	100 to 1000	< 50	< 50	< 50
N#CC1(c2cc(Nc3nc(N[C@@H]4CCC(F)(F)C4)nc(-c4ccnc(C(F)(F)F)n4)n3)ccn2)CC1 [Compound 342]	100 to 1000	< 50	< 50	< 50
C[C@@H](Nc1nc(N[C@H](C)C(F)(F)F)nc(-c2ccnc(C(F)(F)F)n2)n1)C(F)(F)F [Compound 344]	50 to 100	50 to 100	50 to 100	< 50
CC[C@H](Nc1nc(N[C@@H](CC)C(F)(F)F)nc(-c2ccnc(C(F)(F)F)n2)n1)C(F)(F)F [Compound 345]	< 50	100 to 1000	100 to 1000	< 50
CC[C@H](Nc1nc(N[C@@H](CC)C(F)(F)F)nc(-c2cccc(C(F)(F)F)n2)n1)C(F)(F)F [Compound 346]	< 50	< 50	< 50	< 50
C[C@H](Nc1nc(Nc2ccnc(C3(C#N)CC3)c2)nc(-c2cccc(C(C)(F)F)n2)n1)C(F)(F)F [Compound 347]	< 50	< 50	< 50	< 50
C[C@@H](Nc1nc(Nc2ccnc(C3(C#N)CC3)c2)nc(-c2cccc(C(C)(F)F)n2)n1)C(F)(F)F [Compound 348]	< 50	< 50	< 50	< 50
C[C@H](Nc1nc(Nc2ccnc(C3(C#N)CC3)c2)nc(-n2ccc(C(F)(F)F)n2)n1)C(F)(F)F [Compound 349]	< 50	< 50	< 50	< 50
C[C@H](Nc1nc(Nc2ccnc(C3(C#N)CC3)c2)nc(-c2cccc(C(F)(F)F)n2)n1)C(F)(F)F [Compound 351]	< 50	< 50	< 50	< 50
C[C@@H](Nc1nc(Nc2ccnc(C3(C#N)CC3)c2)nc(-c2cccc(C(F)(F)F)n2)n1)C(F)(F)F [Compound 352]	< 50	< 50	< 50	< 50
FC1(F)CCC(Nc2nc(Nc3ccnc(C(F)(F)F)c3)nc(-c3nc(C(F)(F)F)cs3)n2)C1 (stereo not shown) [Compound 353]	< 50	< 50	< 50	< 50
FC(F)(F)c1cccc(-c2nc(NCC3CC3(F)F)nc(NCC3CC3(F)F)n2)n1 (stereo not shown) [Compound 354]	50 to 100	< 50	< 50	< 50
CC(F)(F)c1cc(Nc2nc(N[C@@H]3CCC(F)(F)C3)nc(-c3cccc(C(F)(F)F)n3)n2)ccn1 [Compound 355]	< 50	< 50	< 50	< 50
C[C@H](Nc1nc(Nc2ccnc(C(F)(F)F)c2)nc(-n2ccc(C(F)(F)F)n2)n1)C(F)(F)F [Compound 356]	< 50	< 50	< 50	< 50
CC(F)(F)c1csc(-c2nc(NC3CCC(F)(F)CC3)nc(NC3CCC(F)(F)CC3)n2)n1 [Compound 357]	50 to 100	< 50	< 50	< 50
CC(F)(F)c1cc(Nc2nc(NC3CC(F)(F)C3)nc(-c3cccc(C(F)(F)F)n3)n2)ccn1 [Compound 358]	< 50	< 50	< 50	< 50
C[C@@H](Nc1nc(Nc2ccnc(-c3ccccc3)c2)nc(-c2cccc(C(F)(F)F)n2)n1)C(F)(F)F [Compound 359]	< 50	< 50	< 50	< 50
CC(F)(F)c1cc(Nc2nc(N[C@H]3CCC(F)(F)C3)nc(-c3cccc(C(F)(F)F)n3)n2)ccn1 [Compound 360]	< 50	< 50	< 50	< 50
CC(F)(F)c1cc(Nc2nc(NC3CCC(F)(F)CC3)nc(-c3cccc(C(F)(F)F)n3)n2)ccn1 [Compound 361]	50 to 100	< 50	< 50	< 50
CC[C@H](Nc1nc(N[C@@H](CC)C(F)(F)F)nc(-n2ccc(C(F)(F)F)n2)n1)C(F)(F)F [Compound 363]	< 50	50 to 100	50 to 100	< 50
C[C@@H](Nc1nc(Nc2ccnc(-c3ccc(Cl)cc3)c2)nc(-c2cccc(C(F)(F)F)n2)n1)C(F)(F)F [Compound 364]	50 to 100	< 50	< 50	< 50
FC(F)(F)c1cc(Nc2nc(NCC3CC3(F)F)nc(-c3cccc(C(F)(F)F)n3)n2)ccn1 (stereo not shown) [Compound 365]	50 to 100	< 50	< 50	< 50
CC(F)(F)c1cncc(-c2nc(NC3CC(F)(F)C3)nc(NC3CC(F)(F)C3)n2)n1 [Compound 366]	< 50	< 50	< 50	< 50
Fc1cc(F)cc(Nc2nc(NC3CCC(F)(F)CC3)nc(-c3cncc(C(F)(F)F)n3)n2)c1 [Compound 367]	< 50	< 50	< 50	< 50
Fc1cc(F)cc(Nc2nc(N[C@@H]3CCC(F)(F)C3)nc(-c3cncc(C(F)(F)F)n3)n2)c1 [Compound 369]	< 50	< 50	< 50	< 50
CC(F)(F)c1cncc(-c2nc(NC3CCC(F)(F)C3)nc(NC3CCC(F)(F)C3)n2)n1 (stereo not shown) [Compound 370]	< 50	< 50	< 50	< 50
C[C@@H](Nc1nc(Nc2ccnc(-c3ccc(F)cc3)c2)nc(-c2cccc(C(F)(F)F)n2)n1)C(F)(F)F [Compound 371]	< 50	< 50	< 50	< 50
CC(F)(F)c1cccc(-c2nc(Nc3ccnc(C4(C#N)CC4)c3)nc(NC3CC(F)(F)C3)n2)n1 [Compound 372]	< 50	< 50	< 50	< 50
